Experimental data: patent publication US20260374766A1, “METHODS FOR TREATING CANCER” (Antares Therapeutics, Inc., priority 2022, published 2026)
Where two headings read alike, the source gives them in different places.

Columns and labels:
[1] = target: T1, p53 Y220C mutant protein (amino acid residues 94-293) (Homo sapiens, UniProt P04637, Y220C); experiment: Surface Plasmon Resonance (SPR) assay, Kd_kinetic; type: binding; settings: read-out: SPR P53 Y220C KD kinetic
T1 construct: p53 Y220C mutant protein (amino acid residues 94-293)
Outline: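 Binding measured by SPR on a Biacore 8K in running buffer of 50 mM Tris pH 7.5, 100 mM NaCl, 1 mM DTT, 0.01% Brij35, 0.05% Tween-20, 1% DMSO.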

[2] = test system: H1299 p53 R273H; experiment: Cell Proliferation Assay (CellTiter-Glo, CTG), H1299 p53 R273H (NClH1299-inducible p53 R273H); type: cell-based; settings: Homo sapiens, NCI-H1299, 120 h, CellTiter-Glo, H1299 p53 R273H, 5 days
Outline: (§1)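 Cells seeded at 250-500 per well and exposed to compound for 5 days. Viability read by CellTiter-Glo luminescence after 10 min at room temperature; IC50 calculated. H1299 lines carry Tet-One inducible p53 mutant constructs introduced by lentiviral transduction.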

[3] = test system: NUGC3 p53 Y220C; experiment: Cell Proliferation Assay (CellTiter-Glo, CTG), NUGC3 p53 Y220C; type: cell-based; settings: Homo sapiens, NUGC-3, 120 h, CellTiter-Glo, NUGC3 p53 Y220C, 5 days
Outline: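 NClH1299 lines stably transduced with Tet-inducible p53 Y220C or R273H, plus NUGC3, were treated with compound for 5 days at 250-500 cells/well. IC50 derived from CellTiter-Glo luminescent signal after 10 min room-temperature incubation.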

[4] = target: T1, p53 Y220C mutant protein (amino acid residues 94-293); experiment: Thermal Shift Assay (TSA), dTM; type: binding; settings: thermal shift; for ΔTm at 10 µM: 10 uM compound, read-out: TSA P53 Y220C dTM (10 uM); for ΔTm at 100 µM: 100 uM compound, read-out: TSA P53 Y220C dTM (100 uM)
Outline: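 TM is derived by fitting Sypro Orange melt curves (30 °C to 50 °C, 0.03 °C/second) to a Boltzmann two-state model. Beforehand, 5 μM p53 Y220C (94-293) sits with 10 μM or 100 μM compound for 3 hours at 20 °C in HEPES pH7.4 buffer containing 100 mM NaCl and 1% DMSO.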

[5] = target: p53 Y220C (Homo sapiens, UniProt P04637, Y220C); experiment: Luciferase Reporter Assay (Luc), p53 response element, NClH1299 cells with inducible p53 Y220C; type: cell-based; settings: luciferase reporter, NClH1299 inducible p53 Y220C, 6 hour; for Emax: 10 uM tool compound as positive control; for AC50: read-out: Luc P53 Y220C AC50
Outline: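 Doxycycline (0.5 ug/mL, 24 h) induces the mutant before a 6-hour compound treatment. Reporter activity is then quantified by One-Glo luminescence.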

[6] = test system: H1299 p53 Y220C; experiment: Cell Proliferation Assay (CellTiter-Glo, CTG), H1299 p53 Y220C (NClH1299-inducible p53 Y220C); type: cell-based; settings: Homo sapiens, NCI-H1299, 120 h, CellTiter-Glo, H1299 p53 Y220C, 5 days
Outline: as §1

Row | SMILES | Kd ([1]; SPR, kinetic KD, p53 Y220C) [nM] | IC50 [2] [nM] | IC50 [3] [nM] | ΔTm at 10 µM [4] [°C] | ΔTm at 100 µM [4] [°C] | Emax [5] [%] | AC50 [5] [nM] | IC50 [6] [nM] | Kd [1] [nM]
1 | COc1cc(S(C)(=O)=O)ccc1NCC#Cc1nc2c(N[C@@H]3C[C@H]4CC[C@H](N4)[C@@H]3F)cccn2c1SC(F)(F)F [Example 131] | < 10 | 5000 to 8000 | < 750 | ≥ 10 | ≥ 10 | 70 to 80 | < 750 | < 750 | 
2 | CNC(=O)c1ccc(NCC#Cc2cc3c(N[C@@H]4CCN(C)C[C@@H]4F)cccn3c2SC(F)F)c(OC)c1 [Example 135, 4-[(3-{3-[(difluoromethyl)sulfanyl]-8-{[(3S,4R)-3-fluoro-1-methylpiperidin-4-yl]amino}indolizin-2-yl}prop-2-yn-1-yl)amino]-3-methoxy-N-methylbenzamide] | < 10 | 8000 to 10000 | < 750 | ≥ 10 |  | > 90 | < 750 | < 750 | 
3 | CNC(=O)c1cnc(NCC#Cc2nc3c(N[C@@H]4CCN(C)C[C@@H]4F)cccn3c2SC(F)(F)F)c(OC)c1 [Example 136] | < 10 | 8000 to 10000 | > 3000 | 5 to 10 | ≥ 10 | 70 to 80 | 1500 to 3000 | > 3000 | 
4 | COc1ccc(C(N)=O)cc1NCC#Cc1nc2c(N[C@@H]3CCN(C)C[C@@H]3F)cccn2c1SC(F)(F)F [Example 138] | < 10 | 8000 to 10000 | < 750 | ≥ 10 | ≥ 10 | 80 to 90 | < 750 | < 750 | 
5 | CNC(=O)c1ccc(NCC#Cc2cn3c(N[C@@H]4CCN(C)C[C@@H]4F)cccc3c2SC(F)(F)F)c(OC)c1 [Example 139, 4-{[3-(5-{[(3S,4R)-3-fluoro-1-methylpiperidin-4-yl]amino}-1-[(trifluoromethyl)sulfanyl]indolizin-2-yl)prop-2-yn-1-yl]amino}-3-methoxy-N-methylbenzamide] | < 10 | 5000 to 8000 | < 750 | ≥ 10 |  | > 90 | < 750 | < 750 | 
6 | COc1ncc(C(N)=O)cc1NCC#Cc1nc2c(N[C@@H]3CCN(C)C[C@@H]3F)cccn2c1SC(F)(F)F [Example 140] | < 10 | < 5000 | < 750 | ≥ 10 |  | 80 to 90 | < 750 | < 750 | 
7 | CNC(=O)c1cnc(OC)c(NCC#Cc2nc3c(N[C@@H]4CCN(C)C[C@@H]4F)cccn3c2SC(F)(F)F)c1 [Example 141] | < 10 | ≥ 10000 | < 750 | ≥ 10 | ≥ 10 | 80 to 90 | < 750 | < 750 | 
8 | CNC(=O)c1cncc(NCC#Cc2nc3c(N[C@@H]4CCN(C)C[C@@H]4F)cccn3c2SC(F)(F)F)c1 [Example 142] | < 10 | ≥ 10000 | < 750 | ≥ 10 | ≥ 10 | < 70 | 750 to 1500 | 750 to 1500 | 
9 | COc1ccc(C(=O)N2CCC2)cc1NCC#Cc1nc2c(N[C@@H]3CCN(C)C[C@@H]3F)cccn2c1SC(F)(F)F [Example 144] |  | ≥ 10000 | 750 to 1500 | 5 to 10 | ≥ 10 | 80 to 90 | 750 to 1500 | 1500 to 3000 | < 10
10 | COc1ccc(C(=O)NC(C)C)cc1NCC#Cc1nc2c(N[C@@H]3CCN(C)C[C@@H]3F)cccn2c1SC(F)(F)F [Example 145] | < 10 | ≥ 10000 | < 750 | ≥ 10 | ≥ 10 | 80 to 90 | < 750 | < 750 | 
11 | CNC(=O)c1ccc(NCC#Cc2nc3c(N[C@@H]4CN(C)CC[C@@H]4F)cccn3c2SC(F)(F)F)c(OC)c1 [Example 146] | < 10 | 5000 to 8000 | < 750 | ≥ 10 | ≥ 10 | 70 to 80 | < 750 | < 750 | 
12 | CNC(=O)c1ccc(NCC#Cc2nc3c(N[C@H]4CN(C)CC[C@@H]4F)cccn3c2SC(F)(F)F)c(OC)c1 [Example 147] | < 10 | 8000 to 10000 | < 750 | ≥ 10 | ≥ 10 | > 90 | < 750 | < 750 | 
13 | CNC(=O)c1cc(NCC#Cc2nc3c(N[C@@H]4CCN(C)C[C@@H]4F)cccn3c2SC(F)(F)F)c(OC)cn1 [Example 148] | < 10 | ≥ 10000 | < 750 | ≥ 10 | ≥ 10 | 70 to 80 | < 750 | < 750 | 
14 | CNC(=O)c1cccc(NCC#Cc2nc3c(N[C@@H]4CCN(C)C[C@@H]4F)cccn3c2SC(F)(F)F)c1 [Example 149] |  | ≥ 10000 | < 750 | ≥ 10 | ≥ 10 | 80 to 90 | < 750 | < 750 | < 10
15 | COc1cc2c(cc1NCC#Cc1nc3c(N[C@@H]4CCN(C)C[C@@H]4F)cccn3c1SC(F)(F)F)C(=O)NC2 [Example 151] | < 10 | 5000 to 8000 | < 750 | ≥ 10 |  | > 90 | < 750 | < 750 | 
16 | CNC(=O)c1ccc(OC)c(NCC#Cc2nc3c(N[C@@H]4CNC[C@@H]4F)cccn3c2SC(F)(F)F)c1 [Example 152] | < 10 | ≥ 10000 | < 750 | ≥ 10 | ≥ 10 | 70 to 80 | < 750 | < 750 | 
